The values that follow come from US20250214942A1, “INHIBITORS OF RECEPTOR INTERACTING PROTEIN KINASE I FOR THE TREATMENT OF DISEASE” (Board of Regents, The University of Texas System, priority 2019, published 2025).

Assay [1] concerns the target RIPK1 (Homo sapiens (Human), UniProt Q13546). The experiment in a line: ADP-Glo kinase assay (RIPK1 activity, conversion of ATP to ADP). The conditions noted are these: 5 nM RIPK1, 50 μM ATP, 6 h reaction; read-out: RIPK1 Enzyme Avg IC50. Type of assay: biochemical. In a few lines: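 ADP-Glo luminescence of ATP-to-ADP conversion by 5 nM RIPK1 with 50 μM ATP (final), 6 h reaction after 10 min compound preincubation at rt. Buffer was 50 mM HEPES pH 7.5, 30 mM MgCl2, 0.05% BSA, 0.02% CHAPS. IC50 from four-parameter logistic fit.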
For orientation: In ADP-Glo the light output rises with the ADP produced.

The subject of assay [2] is human monocytic cell line U937. Put plainly: Human U937 cellular necroptosis assay (TNFalpha + z-VAD-FMK, Cell Titer-Glo viability). It is filed as cell-based. The conditions noted are these: U937 cells, 25 ng/mL human TNFalpha + 25 μM z-VAD-FMK, read-out: hU937 Avg IC50. The method in brief:
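Cells resuspended in phenol red-free RPMI with 10% FBS, stimulated with 25 ng/mL human TNFalpha plus 25 μM z-VAD-FMK, then given serially diluted compound for 22 h at 37° C, 5% CO2. Viability by Cell Titer-Glo 2.0 luminescence; IC50 from four-parameter logistic fit, averaged across runs.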
For orientation: In ATP-based viability assays light output follows the ATP content of the culture.

Where two headings read alike, the source gives them in different places.

Sequence of RIPK1 (Q13546 1-327): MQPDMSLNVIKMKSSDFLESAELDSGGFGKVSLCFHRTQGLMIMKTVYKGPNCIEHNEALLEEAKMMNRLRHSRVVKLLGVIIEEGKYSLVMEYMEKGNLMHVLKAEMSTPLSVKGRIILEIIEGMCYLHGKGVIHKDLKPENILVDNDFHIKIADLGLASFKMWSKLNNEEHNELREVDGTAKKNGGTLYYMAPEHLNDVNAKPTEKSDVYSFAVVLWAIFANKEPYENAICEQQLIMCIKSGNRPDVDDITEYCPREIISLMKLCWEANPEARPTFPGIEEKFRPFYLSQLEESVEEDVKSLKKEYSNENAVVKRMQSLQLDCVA

In general, IC50 refers to the point on the concentration scale where inhibition reaches its midpoint. For the molecule `Cc1cnc(C2CC=NN2C(=O)C23CC(Cn4ncc5ncccc54)(C2)C3)cn1` (centres unmarked) [Example 151, (3-((1H-pyrazolo[4,3-b]-pyridin-1-yl)methyl)bicyclo-[1.1.1]pentan-1-yl)(5-(5-methylpyrazin-2-yl)-4,5-dihydro-1H-pyrazol-1-yl)methanone], the IC50 in assay [1] was found to be 0.242 µM; in assay [2] (Homo sapiens, U-937, 22 h), 1.19 µM.
On to `O=C(N1CC(F)CC1c1cccc(F)c1)C12CC(COc3nccc(Cl)n3)(C1)C2` (centres unmarked) [Example 101, (3-(((4-chloropyrimidin-2-yl)oxy)methyl)bicyclo[1.1.1]-pentan-1-yl)(4-fluoro-2-(3-fluorophenyl)pyrrolidin-1-yl)methanone], for which the half-maximal inhibitory concentration (IC50) in assay [1] was 0.486 µM; in assay [2] (Homo sapiens, U-937, 22 h) it was 1.34 µM.
In the same order, the values of `O=C(N1N=CCC1c1cc(F)cc(F)c1)C12CC(Cn3ncc4c(F)cccc43)(C1)C2` (centres unmarked) [Example 22, (5-(3,5-Difluorophenyl)-4,5-dihydro-1H-pyrazol-1-yl)(3-((4-fluoro-1H-indazol-1-yl)methyl)bicyclo[1.1.1]pentan-1-yl)methanone] are 0.011 µM and 0.005 µM.
In the case of `Cn1cc(-c2cc(OCC34CC(C(=O)N5CC(F)CC5c5cccc(F)c5)(C3)C4)ncn2)cn1` (single isomer, unassigned) [Example 29, (4-Fluoro-2-(3-fluorophenyl)pyrrolidin-1-yl)(3-(((6-(1-methyl-1H-pyrazol-4-yl)pyrimidin-4-yl)oxy)methyl)bicyclo[1.1.1]pentan-1-yl)methanone], the concentration for half-maximal inhibition (IC50) in assay [1] turned out to be 0.213 µM; in assay [2] (Homo sapiens, U-937, 22 h) it was 0.647 µM.
For `O=C(N1N=CCC1c1cc(F)cc(F)c1)C12CC(Cn3cc(C(F)(F)F)cn3)(C1)C2` (centres unmarked) [Example 72, (5-(3,5-difluorophenyl)-4,5-dihydro-1H-pyrazol-1-yl)(3-((4-(trifluoromethyl)-1H-pyrazol-1-yl)methyl)bicyclo-[1.1.1]pentan-1-yl)methanone], the IC50 in assay [1] stood at 0.078 µM; in assay [2] (Homo sapiens, U-937, 22 h), 0.098 µM.
With `O=C(N1N=CCC1c1cc(F)cc(F)c1)C12CC(COc3ccc(F)cc3F)(C1)C2` (centres unmarked) [Example 335, (3-((2,4-difluorophenoxy)-methyl)bicyclo[1.1.1]pentan-1-yl)(5-(3,5-difluorophenyl)-4,5-dihydro-1H-pyrazol-1-yl)methanone], the IC50 amounted to 0.018 µM in assay [1] and 0.046 µM in assay [2] (Homo sapiens, U-937, 22 h).
For `N#Cc1ccc2c(cnn2CC23CC(C(=O)N4CCC4c4ccccc4F)(C2)C3)c1` (centres unmarked) [Example 248, 1-((3-(2-(2-fluorophenyl)-azetidine-1-carbonyl)bicyclo-[1.1.1]pentan-1-yl)methyl)-1H-indazole-5-carbonitrile], the concentration for half-maximal inhibition (IC50) in assay [1] stood at 0.023 µM; in assay [2] (Homo sapiens, U-937, 22 h), 0.186 µM.
As for `O=C(N1N=CCC1c1cc(F)cc(F)c1)C12CC(COc3cc(Cl)ncn3)(C1)C2` (centres unmarked) [Example 7, (3-(((6-Chloropyrimidin-4-yl)oxy)methyl)bicyclo[1.1.1]pentan-1-yl)(5-(3,5-difluorophenyl)-4,5-dihydro-1H-pyrazol-1-yl)methanone], the IC50 in assay [1] is 0.021 µM; in assay [2] (Homo sapiens, U-937, 22 h), 0.018 µM.
Take `N#Cc1cccc2c1cnn2CC12CC(C(=O)N3N=CCC3c3cc(F)cc(F)c3)(C1)C2` (centres unmarked) [Example 67, 1-((3-(5-(3,5-difluorophenyl)-4,5-dihydro-1H-pyrazole-1-carbonyl)bicyclo[1.1.1]-pentan-1-yl)methyl)-1H-indazole-4-carbonitrile]: the IC50 in assay [1] was determined as 0.019 µM; in assay [2] (Homo sapiens, U-937, 22 h), 0.054 µM.
In the case of `Cc1ccc(C2CC=NN2C(=O)C23CC(Cn4cc(C#N)cn4)(C2)C3)nc1` (centres unmarked) [Example 171, 1-((3-(5-(5-methylpyridin-2-yl)-4,5-dihydro-1H-pyrazole-1-carbonyl)bicyclo[1.1.1]-pentan-1-yl)methyl)-1H-pyrazole-4-carbonitiile], the half-maximal inhibitory concentration (IC50) in assay [1] was 0.67 µM; in assay [2] (Homo sapiens, U-937, 22 h), 3.7 µM.
On to `N#Cc1cnn(CC23CC(C(=O)N4N=CCC4c4cncc(F)c4)(C2)C3)c1` (centres unmarked) [Example 166, 1-((3-(5-(5-fluoropyridin-3-yl)-4,5-dihydro-1H-pyrazole-1-carbonyl)bicyclo[1.1.1]-pentan-1-yl)methyl)-1H-pyrazole-4-carbonitrile], for which the IC50 in assay [1] is 0.308 µM; in assay [2] (Homo sapiens, U-937, 22 h), 1.97 µM.
With `Cn1cc(-c2cc(OCC34CC(C(=O)N5CC(F)CC5c5cccc(F)c5)(C3)C4)ncn2)cn1` (single isomer, unassigned) [Example 30, (4-Fluoro-2-(3-fluorophenyl)pyrrolidin-1-yl)(3-(((6-(1-methyl-1H-pyrazol-4-yl)pyrimidin-4-yl)oxy)methyl)bicyclo[1.1.1]pentan-1-yl)methanone], the 50% inhibitory concentration (IC50) in assay [1] is 0.124 µM; in assay [2] (22 h), 0.708 µM.
As to `Cc1ccccc1OCC12CC(C(=O)N3N=CCC3c3cc(F)cc(F)c3)(C1)C2` (centres unmarked) [Example 337, (5-(3,5-difluorophenyl)-4,5-dihydro-1H-pyrazol-1-yl)(3-((o-tolyloxy)methyl)bicyclo-[1.1.1]pentan-1-yl)methanone], the 50% inhibitory concentration (IC50) in assay [1] came to 0.024 µM; in assay [2] (Homo sapiens, U-937, 22 h) it was 0.14 µM.
With `O=C(N1N=CCC1c1cc(F)cc(F)c1)C12CC(Cn3cc4c(F)cccc4n3)(C1)C2` (centres unmarked) [Example 21, (5-(3,5-Difluorophenyl)-4,5-dihydro-1H-pyrazol-1-yl)(3-((4-fluoro-2H-indazol-2-yl)methyl)bicyclo[1.1.1]pentan-1-yl)methanone], the half-maximal inhibitory concentration (IC50) in assay [1] came to 0.07 µM; in assay [2] (Homo sapiens, U-937, 22 h) it was 0.114 µM.
For `N#CCC12CC(C(=O)N3N=CCC3c3cc(F)cc(F)c3)(C1)C2` (centres unmarked) [Example 18, 2-(3-(5-(3,5-Difluorophenyl)-4,5-dihydro-1H-pyrazole-1-carbonyl)-bicyclo[1.1.1]pentan-1-yl)acetonitrile], the IC50 in assay [1] stood at 0.07 µM; in assay [2] (Homo sapiens, U-937, 22 h) it was 0.284 µM.
As to `O=C(N1CC(F)CC1c1cccc(F)c1)C12CC(COc3cc(Br)ncn3)(C1)C2` (centres unmarked) [Example 28, (3-(((6-Bromopyrimidin-4-yl)oxy)methyl)bicyclo[1.1.1]pentan-1-yl)(4-fluoro-2-(3-fluorophenyl)pyrrolidin-1-yl)methanone], the concentration for half-maximal inhibition (IC50) in assay [1] is 0.032 µM; in assay [2] (Homo sapiens, U-937, 22 h), 0.193 µM.
With `O=C(N1N=CCC1c1cc(F)cc(F)c1)C12CC(Cn3cc4cccc(Cl)c4n3)(C1)C2` (centres unmarked) [Example 58, (3-((7-chloro-2H-indazol-2-yl)methyl)bicyclo[1.1.1]-pentan-1-yl)(5-(3,5-difluoro-phenyl)-4,5-dihydro-1H-pyrazol-1-yl)methanone], the IC50 is 0.034 µM in assay [1] and 0.16 µM in assay [2] (Homo sapiens, U-937, 22 h).
On to `O=C(N1N=CCC1c1cc(F)cc(F)c1)C12CC(C(O)c3cccc(Cl)c3)(C1)C2` (centres unmarked) [Example 230, (3((3-chlorophenyl)-(hydroxy)methyl)bicyclo-[1.1.1]pentan-1-yl)(5-(3,5-difluorophenyl)-4,5-dihydro-1H-pyrazol-1-yl)methanone], for which the half-maximal inhibitory concentration (IC50) is 0.093 µM in assay [1] and 0.407 µM in assay [2] (Homo sapiens, U-937, 22 h).
Consider `COc1ccc(C(F)C23CC(C(=O)N4N=CCC4c4cc(F)cc(F)c4)(C2)C3)cc1` (centres unmarked) [Example 228, (5-(3,5-difluorophenyl)-4,5-dihydro-1H-pyrazol-1-yl)(3-(fluoro(4-methoxyphenyl)-methyl)bicyclo[1.1.1]pentan-1-yl)methanone], for which the half-maximal inhibitory concentration (IC50) is 0.433 µM in assay [1] and 2.41 µM in assay [2] (Homo sapiens, U-937, 22 h).
